Measurements from patent US9145425B2, “Cephem compound having catechol group” (SHIONOGI & CO., LTD., priority 2010, dated 2015).
≈ marks a conversion by molar mass, not a printed value. Counter-ions that a name gives are not always drawn. Like-named read-outs stand apart in the source and are kept apart here.

Experiments:
[1] = system: P. aeruginosa SR27001 (multi-resistant Pseudomonas aeruginosa; IMP-1 producing strain); assay: Antimicrobial activity in vitro (MIC) of the in vivo test compounds; assay type: cell-based; settings: addition of Tf
Protocol: Measurement of Minimum Inhibitory Concentration (MIC, μg/ml) was conducted according to the standard method of the Japan Society for Chemotherapy and the amount of bacteria for inoculation was 1000 cfu/spot, and sensitive disc medium was used as the test medium, and conducted using agar plate incubation.
The antimicrobial activity in vitro (MIC) of the test compounds was determined according to the method of Experimental Example 1.

[2] = system: P. aeruginosa SR27001 (multi-resistant Pseudomonas aeruginosa; IMP-1 producing strain); assay: Antimicrobial activity in vivo, mouse intraperitoneal infection, ED50 from survival rate; settings: Mice (ICR type, male, 5 weeks), intravenous administration in twice from 1.5 h after infection, survival rate after 7 days
Protocol: The antimicrobial activity in vivo of the present compound (I) was determined.
Mice (ICR type, male, 5 weeks) were inoculated intraperitoneally with P. aeruginosa SR27001 (multi-resistant Pseudomonas aeruginosa; IMP-1 producing strain) to raise infection. One and half hours after, mice were treated with intravenious administration in twice, and then the ED50 value was calculated based on the survival rate after 7 days.

[3] = system: Stenotrophomonas maltophilia SR21970; assay: Minimum Inhibitory Concentration (MIC), agar plate incubation, CLSI method; assay type: cell-based
How it was run: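 MIC against Stenotrophomonas maltophilia SR21970 determined by CLSI agar dilution on Mueller-Hinton agar, inoculum 10000 cfu/spot. Values in μg/ml.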

[4] = system: Klebsiella pneumoniae ATCC 700603; assay: Minimum Inhibitory Concentration (MIC), agar plate incubation, Japan Society for Chemotherapy standard method; assay type: cell-based
How it was run: (§1)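 MIC (μg/ml) by agar plate method per Japan Society for Chemotherapy standard. Inoculum 1000 cfu/spot on sensitive disc medium.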

[5] = system: Pseudomonas aeruginosa SR27060; assay: as above; assay type: cell-based
How it was run: as §1

[6] = system: Pseudomonas aeruginosa SR24; assay: as above; assay type: cell-based
How it was run: as §1

[7] = system: Acinetobacter baumannii SR24396; assay: as above; assay type: cell-based
How it was run: as §1

[8] = Pseudomonas aeruginosa, read-out: MIC
[9] = Pseudomonas aeruginosa, read-out: ED50
[10] = Stenotrophomonas maltophilia SR21970, L-1, MBL producer strain (carbapenem resistant strain), 10000 cfu/spot, Mueller-Hinton agar medium
[11] = Klebsiella pneumoniae ATCC 700603, SHV-18, ESBL producer strain, 1000 cfu/spot, sensitive disc medium
[12] = Pseudomonas aeruginosa SR27060, IMP-1, MBL producer strain (carbapenem resistant strain), 1000 cfu/spot, sensitive disc medium
[13] = Pseudomonas aeruginosa SR24, no enzyme, ceftazidime sensitive strain, 1000 cfu/spot, sensitive disc medium
[14] = Acinetobacter baumannii SR24396, no enzyme, 1000 cfu/spot, sensitive disc medium
[15] = Stenotrophomonas maltophilia, SR21970, read-out: Minimum Inhibitory Concentration (MIC)
[16] = Klebsiella pneumoniae, ATCC700603, read-out: Minimum Inhibitory Concentration (MIC)
[17] = Pseudomonas aeruginosa, SR27060, read-out: Minimum Inhibitory Concentration (MIC)
[18] = Pseudomonas aeruginosa, SR24, read-out: Minimum Inhibitory Concentration (MIC)
[19] = Acinetobacter baumannii, SR24396, read-out: Minimum Inhibitory Concentration (MIC)
[20] = Stenotrophomonas maltophilia SR21970, L-1, MBL producer strain (carbapenem resistant strain), 10000 cfu/spot, Mueller-Hinton agar medium, read-out: Minimum Inhibitory Concentration (MIC)
[21] = ATCC700603, Klebsiella pneumoniae ATCC 700603, SHV-18, ESBL producer strain, 1000 cfu/spot, sensitive disc medium, read-out: Minimum Inhibitory Concentration (MIC)
[22] = Pseudomonas aeruginosa SR27060, IMP-1, MBL producer strain (carbapenem resistant strain), 1000 cfu/spot, sensitive disc medium, read-out: Minimum Inhibitory Concentration (MIC)
[23] = Pseudomonas aeruginosa SR24, no enzyme, ceftazidime sensitive strain, 1000 cfu/spot, sensitive disc medium, read-out: Minimum Inhibitory Concentration (MIC)
[24] = Acinetobacter baumannii SR24396, no enzyme, 1000 cfu/spot, sensitive disc medium, read-out: Minimum Inhibitory Concentration (MIC)

CO/N=C(\C(=O)N[C@@H]1C(=O)N2C(C(=O)[O-])=C(C[N+]3(C)CCCC3)CS[C@H]12)c1csc(N)n1 [CFPM, cefepime hydrochloride hydrate, reference compound]
MIC [1, 8]: > 64 µg/mL | ED50 [2, 9]: > 100 mg/kg

C[C@H](O/N=C(\C(=O)N[C@@H]1C(=O)N2C(C(=O)[O-])=C(C[N+]34CCC[C@H]3CN(C(=O)c3ccc(O)c(O)c3Cl)CC4)CS[C@H]12)c1csc(N)n1)C(=O)[O-].[Na+] (stereo partly shown) [Compound I-13]
MIC [1, 8]: 1 µg/mL | ED50 [2, 9]: 4.22 mg/kg

CC(C)(ON=C(C(=O)NC1C(=O)N2C(C(=O)[O-])=C(C[N+](C)(C)C3CCN(C(=O)c4ccc(O)c(O)c4Cl)C3)CSC12)c1csc(N)n1)C(=O)[O-].[Na+] (stereo not shown) [Compound I-20]
MIC [1]: 2 µg/mL | ED50 [2]: 5.48 mg/kg

CCC(ON=C(C(=O)NC1C(=O)N2C(C(=O)[O-])=C(C[N+]34CCC(CC3)N(C(=O)c3ccc(O)c(O)c3Cl)CC4)CSC12)c1csc(N)n1)C(=O)[O-].[Na+] (stereo not shown) [Compound I-25]
MIC [1]: 1 µg/mL | Minimum Inhibitory Concentration (MIC) [3, 10]: 1 µg/mL | Minimum Inhibitory Concentration (MIC) [4, 11]: 0.25 µg/mL | Minimum Inhibitory Concentration (MIC) [5, 12]: 0.5 µg/mL | Minimum Inhibitory Concentration (MIC) [6, 13]: 0.125 µg/mL | Minimum Inhibitory Concentration (MIC) [7, 14]: 0.125 µg/mL | ED50 [2]: 3.34 mg/kg

CC(C)(O/N=C(\C(=O)N[C@@H]1C(=O)N2C(C(=O)O)=C(C[N+]3(C)[C@@H]4CC[C@H]3C[C@@H](NC(=O)c3cc(O)c(O)c(Cl)c3)C4)CS[C@H]12)c1csc(N)n1)C(=O)[O-] (stereo partly shown) [II-50]
MIC [3, 15]: 0.5 µg/mL (≈ 0.642 µM) | MIC [4, 16]: 0.25 µg/mL (≈ 0.321 µM) | MIC [5, 17]: 0.5 µg/mL (≈ 0.642 µM) | MIC [6, 18]: 0.125 µg/mL (≈ 0.161 µM) | MIC [7, 19]: 0.25 µg/mL (≈ 0.321 µM)

C[N+]1(CC2=C(C(=O)[O-])N3C(=O)C(NC(=O)C(=NOC(CC(=O)O)C(=O)[O-])c4csc(N)n4)C3SC2)C2CCC1CC(NC(=O)c1cc(O)c(O)c(Cl)c1)C2.[Na+] (stereo not shown) [II-51]
Minimum Inhibitory Concentration (MIC) [3, 10]: 0.25 µg/mL | Minimum Inhibitory Concentration (MIC) [4, 11]: 0.25 µg/mL | Minimum Inhibitory Concentration (MIC) [5, 12]: 0.25 µg/mL | Minimum Inhibitory Concentration (MIC) [6, 13]: 0.125 µg/mL | Minimum Inhibitory Concentration (MIC) [7, 14]: 0.125 µg/mL

Nc1nc(/C(=N/O[C@@H](CC(=O)[O-])C(=O)[O-])C(=O)N[C@@H]2C(=O)N3C(C(=O)[O-])=C(C[N+]45CCC[C@H]4CN(C(=O)c4cc(O)c(O)c(Cl)c4)CC5)CS[C@H]23)cs1.[Na+].[Na+] (stereo partly shown) [II-57]
Minimum Inhibitory Concentration (MIC) [3, 10]: 0.5 µg/mL | Minimum Inhibitory Concentration (MIC) [4, 11]: 0.25 µg/mL | Minimum Inhibitory Concentration (MIC) [5, 12]: 0.5 µg/mL | Minimum Inhibitory Concentration (MIC) [6, 13]: 0.063 µg/mL | Minimum Inhibitory Concentration (MIC) [7, 14]: 0.063 µg/mL

Nc1nc(C(=NOC(CC(=O)[O-])C(=O)[O-])C(=O)NC2C(=O)N3C(C(=O)[O-])=C(C[N+]45CCC(CNC(=O)c6ccc(O)c(O)c6Cl)(CC4)CC5)CSC23)cs1.[Na+].[Na+] (stereo not shown) [II-58]
Minimum Inhibitory Concentration (MIC) [3, 10]: 0.5 µg/mL | Minimum Inhibitory Concentration (MIC) [4, 11]: 0.5 µg/mL | Minimum Inhibitory Concentration (MIC) [5, 12]: 0.5 µg/mL | Minimum Inhibitory Concentration (MIC) [6, 13]: 0.25 µg/mL | Minimum Inhibitory Concentration (MIC) [7, 14]: 0.125 µg/mL

CC[C@H](O/N=C(\C(=O)N[C@@H]1C(=O)N2C(C(=O)O)=C(C[N+]34CCC(CNC(=O)c5ccc(O)c(O)c5Cl)(CC3)CC4)CS[C@H]12)c1csc(N)n1)C(=O)[O-] [II-59]
MIC [3, 20]: 1 µg/mL (≈ 1.28 µM) | MIC [4, 21]: 0.5 µg/mL (≈ 0.642 µM) | MIC [5, 22]: 0.5 µg/mL (≈ 0.642 µM) | MIC [6, 23]: 0.25 µg/mL (≈ 0.321 µM) | MIC [7, 24]: 0.125 µg/mL (≈ 0.161 µM)

CC(C)(O/N=C(\C(=O)N[C@@H]1C(=O)N2C(C(=O)O)=C(C[N+]3(C)[C@@H]4CC[C@H]3C[C@@H](NC(=O)c3ccc(O)c(O)c3Cl)C4)CS[C@H]12)c1nsc(N)n1)C(=O)[O-] (stereo partly shown) [II-63]
MIC [3, 20]: 0.5 µg/mL (≈ 0.642 µM) | MIC [4, 21]: 1 µg/mL (≈ 1.28 µM) | MIC [5, 22]: 0.5 µg/mL (≈ 0.642 µM) | MIC [6, 23]: 0.063 µg/mL (≈ 0.0808 µM) | MIC [7, 24]: 0.125 µg/mL (≈ 0.16 µM)

CC(C)[C@H](O/N=C(\C(=O)N[C@@H]1C(=O)N2C(C(=O)O)=C(C[N@+]3(C)[C@@H]4CC[C@H]3C[C@@H](NC(=O)c3ccc(O)c(O)c3Cl)C4)CS[C@H]12)c1csc(N)n1)C(=O)[O-] [III-3]
MIC [3, 20]: 0.5 µg/mL (≈ 0.631 µM) | MIC [4, 21]: 0.25 µg/mL (≈ 0.316 µM) | MIC [5, 22]: 0.5 µg/mL (≈ 0.631 µM) | MIC [6, 23]: 0.125 µg/mL (≈ 0.158 µM) | MIC [7, 24]: 0.125 µg/mL (≈ 0.158 µM)

CC(C)(O/N=C(\C(=O)N[C@@H]1C(=O)N2C(C(=O)O)=C(C[N+]34CCCC3(CNC(=O)c3ccc(O)c(O)c3Cl)CCC4)CS[C@H]12)c1csc(N)n1)C(=O)[O-] (stereo partly shown) [III-5]
MIC [3, 15]: 0.25 µg/mL (≈ 0.321 µM) | MIC [4, 16]: 0.125 µg/mL (≈ 0.161 µM) | MIC [5, 17]: 0.5 µg/mL (≈ 0.642 µM) | MIC [6, 18]: 0.125 µg/mL (≈ 0.161 µM) | MIC [7, 19]: 0.25 µg/mL (≈ 0.321 µM)

C[N+]1(CC2=C(C(=O)[O-])N3C(=O)C(NC(=O)C(=NOC(CC(=O)O)C(=O)[O-])c4csc(N)n4)C3SC2)C2CCC1CC(NC(=O)c1ccc(O)c(O)c1C(F)(F)F)C2.[Na+] (stereo not shown) [III-14]
Minimum Inhibitory Concentration (MIC) [3, 10]: 0.25 µg/mL | Minimum Inhibitory Concentration (MIC) [4, 11]: 0.5 µg/mL | Minimum Inhibitory Concentration (MIC) [5, 12]: 0.5 µg/mL | Minimum Inhibitory Concentration (MIC) [6, 13]: 0.25 µg/mL | Minimum Inhibitory Concentration (MIC) [7, 14]: 0.125 µg/mL
